Experimental data published in patent publication US7972798B2, “Method for identifying diabetic patients at increased risk for pathological complications” (The United States of America as represented by the …, priority 2007, dated 2011).
Entries after “also recorded” stand apart in the source; their conditions may differ.

What was measured:
[1] = system: endothelial cells; assay: F-actin stress fiber formation in endothelial cells (phalloidin staining); type: cell-based, bovine; conditions: co-incubation, 10 uM
Description: For bright field images, the ˜90% confluent endothelial cells in 24-well plates with various treatments were visualized under Zeiss Axiovert 200 inverted microscope with phase contrast 20× dry lens (NA 0.4). Alternatively, the cells cultured in glass-bottom dishes were monitored under transmission light mode (DIC images) with Zeiss LSM510 META confocal microscope with 63×, water immersion lens (NA 1.2). The live cell DIC images of the endothelial cells were captured continuously up to 15 minutes at room temperature at the speed of about 1 frame/min. For fluorescence images, the cells were cultured on glass-bottom dishes for two days before the experiments. At indicated time point after addition of autoantibodies, 10 μM Hoechst dye 33342 (Sigma Inc., St Louis, Mo.) was added into the culture medium for 15 min at 37° C. in a dark chamber. As described previously, the chromatin condensation and fragmentation was visualized with the Zeiss confocal laser scanning microscope using a 63× water immersion objective, with the excitation wavelength set at 351 nm and the emission filter set at 385-470 nm. We used Texas Red-labeled phalloidin to visualize actin stress fibers. First, we aseptically inserted glass coverslips (12-mm diameter) into 24-well tissue culture plate. […]

[2] = system: Bovine endothelial cells; assay: Apoptosis assay (Hoechst 33342 / propidium iodide) in endothelial cells; type: cell-based
Description: Apoptosis Assay. Endothelial cells were cultured in 24-well plates to reach ˜90% confluence. Purified IgG was added directly to cultured medium. At 0, 6, 12, 18 and 24 hours, culture media was removed and the cells were incubated in a balanced salt solution (BSS) (140 mM NaCl, 2.8 mM KCl, 2 mM CaCl2, 2 mM MgCl2, 10 mM HEPES, pH 7.2) containing propidium iodide (PI, 25 μg/ml) and Hoechst 33342 (10 μM, Sigma) for 15 min. The cells were examined by Zeiss Axiovert 200M microscope using 20× objective (NA 0.4) for phase contrast, fluorescent blue (Hoechst) and red (PI) images. As a membrane permeable dye, Hoechst stains all nuclei with bright blue, while cell impermeable PI only stains the nuclei in the dying cells, which lost their membrane integrity. Early apoptotic cells whose membranes are still intact present only blue nuclei, but the initiation of DNA fragmentation result in patched labeling of the nuclei by Hoechst (14). Cells entering the late apoptotic stage have bright red condensed chromatin or fragmented nuclei that distinguish them from necrotic ones, which have a uniform red color usually with enlarged nuclei. For each experiment, a minimum of total 400 cells for each duplicated sample were counted from at least five randomly chosen fields and the percentage of total apoptotic cells was obtained by adding early and late apoptotic cells. Each experiment was repeated at least three times.

[3] = system: rat pheochromocytoma (PC12) cells; assay: bFGF-induced neurite outgrowth assay in PC12 cells; type: cell-based
Description: Undifferentiated rat PC12 cells were obtained from American Type Culture Collection (Rockville, Md.) and plated at low density in 60 mm dishes. Three groups of 25-50 cells/dish were counted at baseline and at 3 days and 8 days after the addition of test patient protein-A eluate fractions (1:50 or 1:100 dilutions corresponding to 1-30 ug/mL protein). Neurite outgrowth represents the percentage of PC12 cells expressing more than one neurite. A neurite is defined as a cell process that is at least 2 cell diameters in length. Results represent the mean±SD of triplicate determinations in each test fraction.
Undifferentiated rat PC12 cells obtained from the ATCC were plated at low density. Groups of 25-50 cells/dish were counted at baseline and at 3 and 8 days after exposure to 10 ng/mL basic fibroblast growth factor in the presence or absence of test diabetic plasma IgG fractions and Y27632. Results represent triplicate determinations for each test fraction.

C[C@@H](N)[C@H]1CC[C@H](C(=O)Nc2ccncc2)CC1 [Patient Y27632, Y27632]
inhibition of autoantibody-induced stress fiber formation [1]: largely inhibited | inhibition of endothelial cell apoptosis from one diabetic IgG fraction ([2]; 10 uM, n=3 experiments): partially inhibited | restoration of bFGF-induced neurite outgrowth in presence of blocking autoantibodies ([3]; Y27632 1 uM, bFGF 10 ng/mL, autoantibodies from three diabetic patients): completely restored neurite outgrowth | restoration of bFGF-induced neurite outgrowth in presence of blocking autoantibodies ([3]; co-incubation, concentration not stated): abolished; also recorded: neutralization of inhibition; also recorded: reversal | restoration of bFGF-induced neurite outgrowth in presence of blocking autoantibodies ([3]; co-incubation, concentration not stated, listed as Y-27632): completely restored

CC(C)[C@H](NC(=O)c1ccc2ccccc2n1)C(=O)N[C@@H](CC(=O)O)C(=O)COc1c(F)cccc1F [Q-VD-OPH]
block of apoptosis in cells exposed to IgG from patient #2 ([2]; 10 μM, 12 hours): almost completely blocked apoptosis | block of apoptosis in cells exposed to diabetic plasma IgG ([2]; concentration not given): nearly completely blocked apoptosis

bFGF: Recombinant human bFGF from Austral Biologicals
rescue or prevention of eluate-induced apoptosis ([2]; 100 pg/mL bFGF co-incubated with 4-30 ug/mL active protein-A eluate from 5 of 5 diabetic maculopathy plasmas, preliminary): did not rescue or prevent apoptosis
